In patent US20030157553A1, “Methods of assaying for G protein-coupled receptor ligands and modulators” (priority 2000, published 2003):

What was measured:
β2AR [1] = assay: Direct binding assay of in vitro translated tritiated arrestins to purified β2AR reconstituted into phospholipid vesicles; conditions: activated by 0.1 mM agonist isoproterenol, FIG. 1A; for binding to activated unphosphorylated receptor: unphosphorylated β2AR
Excerpt: Mutagenesis and Biochemical Characterization of β-Arrestins—Mutations Arg169→Glu (CGG→GAG), Gln394→Ter (CAA→TAA), and Asp383→Ter (GAT→TAG) were introduced by polymerase chain reaction in β-arrestin construct pBARR (Gurevich et al. (1995) J. Biol. Chem. 270:720-731), that was used for in vitro transcription and translation, as described (Gurevich et al. (1995), supra). NcoI/HindIII 1404-base pair open reading frame was then subdloned into appropriately digested Escherichia coliexpression vector pTrcHisB (Invitrogen). All β-arrestin species were expressed in the in vitro translation system and tested in the direct binding assay (Gurevich et al. (1995), supra), overexpressed in E. coli, purified to apparent homogeneity (Gray-Keller et al. (1997) Biochemistry 36:7058-7063), and characterized in the agonist affinity shift assay (Gurevich et al. (1997) J. Biol Chem. 272:28849-28852), essentially as described.
Direct Binding Assay—In vitro translated tritiated arrestins (50 fmol) were incubated in 50 mM Tris-HCl, pH 7.5, 0.5 mM MgCl2, 1.5 mM dithiothreitol, 50 mM potassium acetate with 7.5 pmol of the various functional forms of rhodopsin or with P-β2AR or β2AR (100 fmol/assay) in a final volume of 50 μl for 5 min at 37° C. in room light (rhodopsin) or for 60 min at 30° C. in the presence of 0.1 mM -agonist isoproterenol. The samples were immediately cooled on ice and loaded onto 2 ml Sepharose 2B columns equilibrated with 20 mM Tris-HCl, pH 7.5, 2 mM EDTA. Bound arrestin eluted with receptor-containing membranes in the void volume (between 0.5 and 1.1 ml). Nonspecific binding determined in the presence of 0.3 μg of liposomes was subtracted.

β2AR [2] = assay: Agonist affinity shift assay ([125I] iodopindolol), formation of high agonist affinity complex (HAC); assay type: binding; conditions: 1 μM arrestin, FIG. 2A
Excerpt: Mutagenesis and Biochemical Characterization of β-Arrestins—Mutations Arg169→Glu (CGG→GAG), Gln394→Ter (CAA→TAA), and Asp383→Ter (GAT→TAG) were introduced by polymerase chain reaction in β-arrestin construct pBARR (Gurevich et al. (1995) J. Biol. Chem. 270:720-731), that was used for in vitro transcription and translation, as described (Gurevich et al. (1995), supra). NcoI/HindIII 1404-base pair open reading frame was then subdloned into appropriately digested Escherichia coliexpression vector pTrcHisB (Invitrogen). […]
Agonist Affinity ShiftAssay—P-β2AR or β2AR (10-15 fmol/assay) was incubated in 0.25 ml of 10 mM Tris-HCl, pH 7.4, 100 mM NaCl (buffer A) containing 0.1 mg/ml bovine serum albumin in the presence of 65-75 fmol of [^125I] iodopindolol (NEN Life Science Products) and the indicated concentrations of arrestins and agonists for 60 min at 22° C. […] Receptor-containing liposomes with bound radioligand were eluted with buffer A (between 0.6 and 1.5 ml), and radioactivity was quantitated in a liquid scintillation counter. Nonspecific binding was determined in the presence of 10 μM alprenolol. […]

binding to activated unphosphorylated receptor (β2AR [1])	binding to activated and phosphorylated β2AR (β2AR [1]; phosphorylated β2AR (P-β2AR))	Substance	percentage of HAC formed by unphosphorylated β2AR (β2AR [2]) [%]
bind poorly	–	β-arrestin-(1-393): bovine β-arrestin mutant Gln394→Ter, part of the regulatory COOH terminus deleted	–
significantly higher binding	–	β-arrestin-(1-382): bovine β-arrestin mutant Asp383→Ter, truncated regulatory COOH terminus	22±4
bind poorly	readily bind	β-arrestin: wild type bovine β-arrestin, comparator for the mutants	–
